# Experimental data from US10500166B2, “Methods for the treatment of erectile dysfunction using fispemifene” (QUATRX PHARMACEUTICALS, priority 2007, dated 2019).
# System: total testosterone
# Assay: Example 3 study in hypogonadal men: morning serum total testosterone (ITT)
# Type: in vivo, human
# Description: A randomized, double-blind, placebo controlled, parallel-group study of once-daily doses of fispemifene (100, 200, and 300 mg/day) given for 4 weeks was conducted in a population of hypogonadal men. Subjects were required to meet all of the following inclusion criteria at screening and prior to randomization to be eligible for the study:
# There were 77 subjects total. The number of subjects randomized to the 100 mg fispemifene, 200 mg fispemifene, 300 mg fispemifene, and placebo arms were 21, 21, 19, and 16, respectively.
# Subjects were randomly assigned to one of four treatment groups in a 1:1:1:1 ratio: • Treatment A (100 mg): fispemifene 100 mg+placebo+placebo; • Treatment B (200 mg): fispemifene 100 mg+fispemifene 100 mg+placebo; • Treatment C (300 mg): fispemifene 100 mg+fispemifene 100 mg+fispemifene 100 mg; and • Treatment D (Placebo): placebo+placebo+placebo.
# Subjects took one dose (three capsules) of study medication once a day at home for 4 weeks. Capsules were to be taken in the morning immediately after breakfast, with the exception of the morning of the Week 4 visit. Capsules were not to be taken on the morning of the Week 4 visit because trough plasma levels of fispemifene were determined by a blood sample taken at this visit. Each subject was randomly assigned to treatment with one of the 3 different dose regimens of fispemifene or placebo vehicle. Each subject received a 4 week supply of study drug.
# Blood samples were taken from the subjects within 1 week prior to dosing with study drug to establish baseline values; after 2 and 4 weeks of randomization; and 2 weeks after the last dose of study drug. Serum was prepared from those samples and used to determine the mean % change from baseline in total testosterone, free testosterone, SHBG (sex hormone-binding globulin), DHT (dihydrotestosterone), E2 (estradiol), LH (luteinizing hormone), FSH (follicle stimulating hormone), and inhibin B.
# The primary efficacy endpoint was defined as percent change from baseline in morning total testosterone levels at Week 4. The intent-to-treat (“ITT”) population was the primary population for analysis. The secondary efficacy endpoints included:
# 2. Percent change from baseline in total testosterone levels at Weeks 2 and 6; and […]
# [1] = 100 mg/day, Week 6 (2 weeks after discontinuation)
# [2] = 100 mg/day, to Week 6 (2 weeks after discontinuation)
# [3] = 200 mg/day, Week 6 (2 weeks after discontinuation)
# [4] = 200 mg/day, to Week 6 (2 weeks after discontinuation)
smiles,measurement,setting,value
"OCCOCCOc1ccc(/C(=C(/CCCl)c2ccccc2)c2ccccc2)cc1 [Fispemifene, (Z)-2-{2-[4-(4-Chloro-1,2-diphenylbut-1-enyl)phenoxy]ethoxy}ethanol]","Total Testosterone, Max","100 mg/day, Baseline (Visit 2)",347.0 ng/dL
same,"Total Testosterone, Mean ± SD","100 mg/day, Baseline (Visit 2)",248.6 ± 68.90 ng/dL
same,"Total Testosterone, Median","100 mg/day, Baseline (Visit 2)",266.0 ng/dL
same,"Total Testosterone, Min","100 mg/day, Baseline (Visit 2)",101.0 ng/dL
same,"Total Testosterone, Max","100 mg/day, Week 2",585.0 ng/dL
same,"Total Testosterone, Mean ± SD","100 mg/day, Week 2",369.9 ± 88.23 ng/dL
same,"Total Testosterone, Median","100 mg/day, Week 2",350.0 ng/dL
same,"Total Testosterone, Min","100 mg/day, Week 2",235.0 ng/dL
same,"Total Testosterone, Max","100 mg/day, Week 4",535.0 ng/dL
same,"Total Testosterone, Mean ± SD","100 mg/day, Week 4",371.6 ± 83.36 ng/dL
same,"Total Testosterone, Median","100 mg/day, Week 4",353.0 ng/dL
same,"Total Testosterone, Min","100 mg/day, Week 4",246.0 ng/dL
same,"Total Testosterone, Max",[1],414.0 ng/dL
same,"Total Testosterone, Mean ± SD",[1],271.9 ± 69.21 ng/dL
same,"Total Testosterone, Median",[1],265.0 ng/dL
same,"Total Testosterone, Min",[1],121.0 ng/dL
same,"Total Testosterone, % Change from Baseline, Max","100 mg/day, to Week 2",133%
same,"Total Testosterone, % Change from Baseline, Median","100 mg/day, to Week 2",45%
same,"Total Testosterone, % Change from Baseline, Min","100 mg/day, to Week 2",14%
same,"Total Testosterone, % Change from Baseline, Max","100 mg/day, to Week 4",198%
same,"Total Testosterone, % Change from Baseline, Median","100 mg/day, to Week 4",35%
same,"Total Testosterone, % Change from Baseline, Min","100 mg/day, to Week 4",7%
same,"Total Testosterone, % Change from Baseline, Max",[2],119%
same,"Total Testosterone, % Change from Baseline, Median",[2],11%
same,"Total Testosterone, Max","200 mg/day, Baseline (Visit 2)",334.0 ng/dL
same,"Total Testosterone, Mean ± SD","200 mg/day, Baseline (Visit 2)",249.1 ± 60.90 ng/dL
same,"Total Testosterone, Median","200 mg/day, Baseline (Visit 2)",253.0 ng/dL
same,"Total Testosterone, Min","200 mg/day, Baseline (Visit 2)",133.0 ng/dL
same,"Total Testosterone, Max","200 mg/day, Week 2",497.0 ng/dL
same,"Total Testosterone, Mean ± SD","200 mg/day, Week 2",370.0 ± 72.44 ng/dL
same,"Total Testosterone, Median","200 mg/day, Week 2",354.0 ng/dL
same,"Total Testosterone, Min","200 mg/day, Week 2",238.0 ng/dL
same,"Total Testosterone, Max","200 mg/day, Week 4",626.0 ng/dL
same,"Total Testosterone, Mean ± SD","200 mg/day, Week 4",387.3 ± 107.39 ng/dL
same,"Total Testosterone, Median","200 mg/day, Week 4",372.0 ng/dL
same,"Total Testosterone, Min","200 mg/day, Week 4",241.0 ng/dL
same,"Total Testosterone, Max",[3],539.0 ng/dL
same,"Total Testosterone, Mean ± SD",[3],276.2 ± 97.28 ng/dL
same,"Total Testosterone, Median",[3],240.0 ng/dL
same,"Total Testosterone, Min",[3],162.0 ng/dL
same,"Total Testosterone, % Change from Baseline, Max","200 mg/day, to Week 2",142%
same,"Total Testosterone, % Change from Baseline, Median","200 mg/day, to Week 2",48%
same,"Total Testosterone, % Change from Baseline, Min","200 mg/day, to Week 2",17%
same,"Total Testosterone, % Change from Baseline, Median","200 mg/day, to Week 4",60%
same,"Total Testosterone, % Change from Baseline, Max",[4],79%
same,"Total Testosterone, % Change from Baseline, Median",[4],11%
same,"Total Testosterone, Max","300 mg/day, Baseline (Visit 2)",348.0 ng/dL
same,"Total Testosterone, Mean ± SD","300 mg/day, Baseline (Visit 2)",234.2 ± 77.69 ng/dL
same,"Total Testosterone, Median","300 mg/day, Baseline (Visit 2)",246.0 ng/dL
same,"Total Testosterone, Min","300 mg/day, Baseline (Visit 2)",17.0 ng/dL
same,"Total Testosterone, Max","300 mg/day, Week 2",526.0 ng/dL
same,"Total Testosterone, Mean ± SD","300 mg/day, Week 2",379.2 ± 122.04 ng/dL
same,"Total Testosterone, Median","300 mg/day, Week 2",427.0 ng/dL
same,"Total Testosterone, Min","300 mg/day, Week 2",13.0 ng/dL
same,"Total Testosterone, Max","300 mg/day, Week 4",643.0 ng/dL
same,"Total Testosterone, Mean ± SD","300 mg/day, Week 4",430.7 ± 163.39 ng/dL
same,"Total Testosterone, Median","300 mg/day, Week 4",479.0 ng/dL
same,"Total Testosterone, Min","300 mg/day, Week 4",8.0 ng/dL
